Laboratory results as given in patent EP0970121B1, “PEPTIDE FRAGMENTS OF MYELIN BASIC PROTEIN, THEIR PHARMACEUTICAL COMPOSITIONS AND THEIR USE IN TREATING MULTIPLE SCLEROSIS” (The Governors of the University of Alberta, priority 1997, dated 1998).
“Also recorded” adds a separate entry of the source. One block for each substance: values may come before it. Where no end group is shown, it is not given here.

Columns and labels:
[1] = system: anti-MBP purified from CSF of MS patients; test: In vitro neutralization of purified anti-MBP (liquid phase assay, then solid phase radioimmunoassay); format: binding, human; set-up: key to REACTIVITY WITH ANTI-MBP: + +: complete neutralization; +: partial neutralization; -: insignificant reactivity; conditions: for REACTIVITY WITH ANTI-MBP: purified anti-MBP, peptides 0-10.000 ng, h-MBP 0-1000 ng, 1.5 hours incubation; for neutralization of purified anti-MBP: pooled anti-MBP from 10 different MS patients, peptides up to 10.000 ng, MBP and negative antigen controls up to 1000 ng
Protocol: (§1) Constant amounts of anti-MBP (15 radioactivity binding units corresponding to 100 for scale expansion purposes = %0) were incubated with increasing amounts of h-MBP (0-1000 ng) or individual peptides of MBP (0-10.000 ng) in a liquid phase assay and after 1.5 hours incubation, free anti-MBP levels were determined in all mixtures. Anti-MBP isolated from 7 individual MS patients or pooled anti-MBP from 10 different MS patients were used in neutralization experiments. Calf thymus histone and human serum albumin were used as negative antigen controls (range: 10-1000 ng). One monoclonal antibody (MAb) to peptide MBP64-78 and a polyclonal rabbit antiserum to peptide MBP1-8 were used as positive antibody controls (Groome, N., Harland, J., and Dawkes, A., Neurochem Int 7:309-317, 1985, Barry, R., Payton. M., and Groome, N., Neurochem Int 2:291-300. 1991). Another mouse monoclonal antibody to epitope 45-50 was used as negative antibody control.
Anti-MBP levels were determined by a solid phase radioimmunoassay with human MBP (Warren, K.G. and Catz, I., Ann Neurol 209:20-25, 1986; Warren, K.G. and Catz, I., Ann Neurol 21:183-187, 1987; and Warren, K.G. and Catz, I., J Neurol Sci 91:143-151. 1989). Free anti-MBP levels were measured in all fractions from affinity chromatography and in all neutralization mixtures. All individual samples were run in quadruplicate using the same iodinated material in order to minimize between-assay variability.

[2] = system: MS patients; test: Monitoring for adverse effects after peptide administration; format: in vivo, human
Protocol: After determining that peptide MBP75-95 neutralized F anti-MBP in vivo for periods in excess of 7 days, it was elected to repeatedly inoculate 10 mg MBP75-95 into the spinal fluid at weekly intervals for 10 weeks. This experiment was conducted, in 3 different patients with chronic progressive MS who have not participated in the single peptide injection project and volunteered for this study. F and B anti-MBP were determined 1-2 weeks prior to the first inoculation, prior to and 30 minutes following each of the 10 injections and again 1 month after the last injection. Cell counts, total protein, glucose, IgG and albumin levels were determined in all CSFs obtained before each of the 10 injections. Prior to the first and after the last injection blood was obtained and analyzed for electrolytes, creatinine, cardiac and liver enzymes and hematology panel.
Blood was obtained before injection as well as 16 and 30 days later and analyzed for electrolytes, creatinine, cardiac and liver enzymes and hematology panel. Spinal fluid was monitored for cell counts, total protein, glucose, IgG and albumin levels.

[3] = system: polyclonal rabbit antiserum to peptide MBP1-8; test: Positive antibody control of the neutralization assay; format: binding
Protocol: as §1

[4] = system: CSF anti-MBP; test: Intrathecal peptide administration, CSF anti-MBP by radioimmunoassay; format: in vivo, human
Protocol: Anti-MBP levels were determined by a solid phase radioimmunoassay with human MBP coated on Immulon microtiter wells. Immulon microtiter wells were coated with 100 µl of 10 µg/ml of MBP (1 µg/well) and incubated overnight at 37°C. After quenching with bovine serum albumin (BSA) and three water washes, the wells were stored at room temperature. Samples of 100 µl of CSF or tissue extracts diluted to 0.010 gm of IgG/l (with 0.01 M Barbitol Buffered Saline (BBS) pH 6.9-7.1. 0.5% BSA and 0.05% Tween 20) were incubated in MBP-coated wells for 1-2 hours at room temperature. After 5 buffer washes (with 0.01 M BBS, 0.5 BSA and 0.05% Tween 20), wells were incubated with goat anti-rabbit IgG-Fc specific (in 0.01 M BBS, 0.05% Tween 20, 0.5% BSA) for 1 hour at room temperature and then rinsed as above. Finally, ^125I-protein A (or ^125 I-protein G) was added and incubated for 1 hour at room temperature. When ^125I-protein G was used as a tracer, ovalbumin replaced BSA in assay buffer and for quenching. After three final water washes wells were individually counted. Results are expressed in radioactivity defined as: (counts of sample - counts of blank) ÷ (counts of total radioactivity - counts of blank). All samples are run in 10 replicate and counting time is 10 minutes in order to collect > 10,000 counts for any positive sample.
Prior to being assayed all CSF and/or tissue samples were diluted to a final IgG concentration of 0.010 g/l. F anti-MBP was detected directly in CSF or tissue extract while B levels of antibody were determined following acid hydrolysis of immune complexes with glycine HCl buffer pH 2.2. Non-specific binding was performed for each sample in uncoated wells. For epitope localization, synthetic peptides were firstly reacted with purified antibody in a liquid phase competitive assay and then anti-MBP was determined by radioimmunoassay in all resulting supernatants. Results of the combined competitive binding assay and radioimmunoassay were expressed as percent inhibition of synthetic peptide defined as 100 - radioactivity units. Samples were done in 10 replicates and counted for 10 minutes each in a LKB1275 Minigamma counter. […]
A Phase 1 experiment to determine the effect of synthetic peptide MBP75-95 on F and B titers of CSF anti-MBP was conducted. […] 14 patients volunteered for this study: eight patients were selected on the basis of their initial titre of F CSF anti-MBP (above 8 radioactivity units) (Table 2) to receive one intrathecal injection of either peptide MBP75-95 which bound anti-MBP in vitro or a non-binding control peptide MBP35-58 (Warren and Catz, 1993b). […] Cell counts, total protein, glucose, IgG and albumin levels were determined in all CSF samples obtained. F and B anti-MBP levels were determined by radioimmunoassay, as described above. […]

[5] = system: F and B anti-MBP purified by affinity chromatography from CSF and MS brain tissue; test: Competitive inhibition assay with decapeptides (MBP epitope localization); format: binding, human; conditions: purified F and B anti-MBP from MS brain tissue (Fig. 10); percent inhibition = 100 - radioactivity units
Protocol: Prior to being assayed all CSF and/or tissue samples were diluted to a final IgG concentration of 0.010 g/l. F anti-MBP was detected directly in CSF or tissue extract while B levels of antibody were determined following acid hydrolysis of immune complexes with glycine HCl buffer pH 2.2. Non-specific binding was performed for each sample in uncoated wells. For epitope localization, synthetic peptides were firstly reacted with purified antibody in a liquid phase competitive assay and then anti-MBP was determined by radioimmunoassay in all resulting supernatants. Results of the combined competitive binding assay and radioimmunoassay were expressed as percent inhibition of synthetic peptide defined as 100 - radioactivity units. Samples were done in 10 replicates and counted for 10 minutes each in a LKB1275 Minigamma counter. A pool of tissue-purified anti-MBP was used at 5 pre-established dilutions as positive controls. Pooled CSF from patients with non-neurological diseases was used as negative controls. Within assay reproducibility was between 3 and 5% and between assay variation was less than 7 %.
The peptide(s) producing maximum inhibition were considered to be most highly associated with the antibody binding site.

[6] = Solubility in normal saline

Substance: 18-32: synthetic peptide of human MBP sequence 18-32 (NSETNRGESEKKRNL; UniProt P02686 18-32, looked up, fragment)
REACTIVITY WITH ANTI-MBP [1]: -

Substance: 26 - 40: synthetic peptide of human MBP sequence 26-40 (SEKKRNLGELSRTTS; UniProt P02686 26-40, looked up, fragment)
REACTIVITY WITH ANTI-MBP [1]: -

Substance: 117 - 129: synthetic peptide of human MBP sequence 117-129 (LQTIQEDSAATSE; UniProt P02686 117-129, looked up, fragment)
REACTIVITY WITH ANTI-MBP [1]: -

Substance: 141 - 155: synthetic peptide of human MBP sequence 141-155 (SQRHGSKYLATASTM; UniProt P02686 141-155, looked up, fragment)
REACTIVITY WITH ANTI-MBP [1]: -

Substance: Cy 4 - 18: synthetic peptide of human MBP sequence 4-18 with cysteine (HAGKRELNAEKASTN; also: added cysteine, end not given here; UniProt P02686 4-18, looked up, fragment)
REACTIVITY WITH ANTI-MBP [1]: -

Substance: Cy 11 - 24: synthetic peptide of human MBP sequence 11-24 with cysteine (NAEKASTNSETNRG; also: added cysteine, end not given here; UniProt P02686 11-24, looked up, fragment)
REACTIVITY WITH ANTI-MBP [1]: -

Substance: Cy 51 - 64 Gly: synthetic peptide of human MBP sequence 51-64 with cysteine and Gly (ANQNNGTSSQDTAV; also: added cysteine and glycine, ends not given here; UniProt P02686 51-64, looked up, fragment)
REACTIVITY WITH ANTI-MBP [1]: +

Substance: Cy 127 - 140: synthetic peptide of human MBP sequence 127-140 with cysteine (TSESLDVMASQKRP; also: added cysteine, end not given here; UniProt P02686 127-140, looked up, fragment)
REACTIVITY WITH ANTI-MBP [1]: -

Substance: Cy 136 - 149: synthetic peptide of human MBP sequence 136-149 with cysteine (SQKRPSQRHGSKYL; also: added cysteine, end not given here; UniProt P02686 136-149, looked up, fragment)
REACTIVITY WITH ANTI-MBP [1]: -

Substance: HHPARTAHYGSLPQK [MBP61-75]
neutralization of purified anti-MBP [1]: partially neutralized
REACTIVITY WITH ANTI-MBP [1]: +

Substance: KSHGRTQDENPVVHFFKNIVT [MBP75-95]
adverse effects ([2]; 500 mg intravenously over 30 minutes, patient 8M41): No adverse effects were observed
adverse effects / systemic complications ([2]; repeated intrathecal inoculations, electrolytes, cardiac-liver-kidney function, hematology): no adverse complications have occurred

Substance: MBP1-8: synthetic peptide of human MBP sequence 1-8 with cysteine (MGNHAGKR; also: added cysteine, end not given here; UniProt P02686 1-8, looked up, fragment)
REACTIVITY WITH ANTI-MBP [1]: -
inhibition of MAb to peptide MBP 1-8 [3]: inhibited

Substance: MBP35-58: non-binding, control synthetic peptide of human MBP residues 35-58 (LSRTTSEDNEVFGEADANQNNGTS; also: added cysteine, end not given here; UniProt P02686 35-58, looked up, fragment)
REACTIVITY WITH ANTI-MBP [1]: -
F and B levels of CSF anti-MBP ([4]; one intrathecal injection of 1, 2.5, 5 and 10 mg, 24 hour experiment): remained unaffected; also recorded: remained unchanged
F anti-MBP in CSF ([4]; one intrathecal injection, 5 mg): remained elevated at baseline level
F anti-MBP in CSF ([4]; one intrathecal injection, 10 mg): persistently elevated
CSF F anti-MBP over increasing doses ([4]; one intrathecal injection, increasing amounts 1, 2.5, 5 and 10 mg): did not react

Substance: MBP51 -60: decapeptide of human MBP residues 51-60, negative control (ANQNNGTSSQ; UniProt P02686 51-60, looked up, fragment)
percent inhibition of both F and B anti-MBP [5]: 0-10%

Substance: MBP 111 -120: decapeptide of human MBP residues 111-120, negative control (PSESDELQTI; UniProt P02686 111-120, looked up, fragment)
percent inhibition of both F and B anti-MBP [5]: 0-10%

Substance: Thr Gln Asp Glu Asn Pro Val Val His Phe Phe Lys Asn Ile Val Thr Pro Arg (TQDENPVVHFFKNIVTPR; printed: Thr Gln Asp Glu Asn Pro Val Val His Phe Phe Lys Asn Ile Val Thr Pro Arg) [MBP80-97]
neutralization of anti-MBP purified from 7 individual MS patients ([1]; anti-MBP of individual patients): completely neutralized
neutralization of purified anti-MBP [1]: completely neutralized
REACTIVITY WITH ANTI-MBP [1]: + +
times less effective on a molar basis than intact MBP at causing inhibition ([1]; relative to intact MBP): approximately 100 times

solubility [6]: very low solubility
Substance: VVHFFKNIVT [MBP86-95, Val Val His Phe Phe Lys Asn Ile Val Thr]
